≈ marks a conversion by molar mass, not a printed value. Read-outs that look alike come from different tables or passages of the source.
Experiments:
[1] = target: T1, human liver microsomal 2,3-oxidosqualene-lanosterol cyclase (OSC) (Homo sapiens, UniProt P48449); assay: Inhibition of human liver microsomal 2,3-oxidosqualene-lanosterol cyclase (OSC); type: biochemical; conditions: human liver microsomes; for IC50: concentration reducing conversion of MOS into lanosterol to 50% of control; for inhibition at 0.1 µM: constant test substance concentration of 100 nM, 1 hour at 37° C., against controls
T1 construct: Liver microsomes from a healthy volunteer were prepared in sodium phosphate buffer (pH 7.4); from tissue; host or cells: human liver microsomes from a healthy volunteer
T1 sequence (P48449 1-732): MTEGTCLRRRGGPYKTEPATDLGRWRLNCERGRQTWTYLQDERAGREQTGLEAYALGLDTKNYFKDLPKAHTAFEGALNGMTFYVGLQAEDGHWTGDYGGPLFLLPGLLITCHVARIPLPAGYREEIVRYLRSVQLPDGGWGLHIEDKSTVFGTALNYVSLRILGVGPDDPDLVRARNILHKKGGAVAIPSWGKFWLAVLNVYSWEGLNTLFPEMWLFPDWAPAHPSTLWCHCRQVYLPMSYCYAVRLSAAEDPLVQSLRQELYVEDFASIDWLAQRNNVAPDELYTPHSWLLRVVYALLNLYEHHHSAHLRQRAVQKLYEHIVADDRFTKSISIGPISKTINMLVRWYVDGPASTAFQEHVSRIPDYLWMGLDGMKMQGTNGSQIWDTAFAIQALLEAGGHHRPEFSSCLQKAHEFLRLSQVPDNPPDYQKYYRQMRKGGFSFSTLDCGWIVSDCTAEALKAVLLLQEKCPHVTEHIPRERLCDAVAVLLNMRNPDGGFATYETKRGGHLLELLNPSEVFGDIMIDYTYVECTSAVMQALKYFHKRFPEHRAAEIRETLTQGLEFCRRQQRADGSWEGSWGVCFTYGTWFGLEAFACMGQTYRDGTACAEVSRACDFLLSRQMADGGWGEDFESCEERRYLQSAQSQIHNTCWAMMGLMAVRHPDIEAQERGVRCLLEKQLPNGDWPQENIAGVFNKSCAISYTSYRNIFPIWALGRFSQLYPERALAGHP
Description: Inhibition of Human Liver Microsomal 2,3-Oxidosqualene-lanosterol Cyclase (OSC)
Liver microsomes from a healthy volunteer were prepared in sodium phosphate buffer (pH 7.4). The OSC activity was measured in the same buffer which also contained 1 mM EDTA and 1 mM dithiothreitol. The microsomes were diluted to 0.8 mg/ml protein in cold phosphate buffer. Dry [^14C]R,S-monooxidosqualene (MOS; 12.8 mCi/mmol) was diluted to 20 nCi/μl with ethanol and mixed with phosphate buffer-1% BSA (Bovine Serum Albumin). A stock solution of 1 mM test substance in DMSO was diluted to the desired concentration with phosphate buffer-1% BSA. 40 μl of microsomes were mixed with 20 μl of the solution of the test substance and the reaction was subsequently started with 20 μl of the [^14C]R,S-MOS solution. The final conditions were: 0.4 mg/ml of microsomal proteins and […] of [^14C]R,S-MOS in phosphate buffer, pH 7.4, containing 0.5% albumin, DMSO <0.1% and ethanol <2%, in a total volume of 80 μl.
After 1 hour at 37° C. the reaction was stopped by the addition of 0.6 ml of 10% KOH-methanol, 0.7 ml of water and 0.1 ml of hexane:ether (1:1, v/v) which contained 25 μg of non-radioactive MOS and 25 μg of lanosterol as the carrier. After shaking 1 ml of hexane:ether (1:1, v/v) was added to each test tube, these were again shaken and then centrifuged. The upper phase was transferred into a glass test tube, the lower phase was again extracted with hexane:ether and combined with the first extract. The entire extract was evaporated to dryness with nitrogen and the residue was suspended in 50 μl of hexane:ether and applied to a silica gel plate. Chromatographic separation was effected in hexane:ether (1:1, v/v) as the eluent. […] After drying radioactive MOS and lanosterol were observed on the silica gel plate. The ratio of MOS to lanosterol was determined from the radioactive bands in order to determine the OSC inhibition.
The test was carried out on the one hand with a constant test substance concentration of 100 nM and the percentage OSC inhibition against controls was calculated. In addition, the test was carried out with different test substance concentrations and subsequently the IC50 value was calculated, i.e. the concentration required to reduce the conversion of MOS into lanosterol to 50% of the control value.

Cryptococcus neoformans = assay: Antifungal activity in vitro, microdilution method; type: cell-based; conditions: growth inhibition, incubation at 27° C. for 48 hours, read-out: IC50 (mg/ml) for: C. neoformans after: 48 hours
Description: (§1) Antifungal Activity In Vitro The compounds were tested for antifungal activity against Candida albicans, Cryptococcus neoformans and Aspergillus fumigatus using a microdilution method on microtitre plates (96 wells per plate). Yeast supplemented with 1% glucose and 0.25% di-potassium phosphate was used for the three fungal strains. The fungal cells were inoculated at 3×10^4 CFU (Colony Forming Unit) in […] of medium per well. The medium contained increasing concentrations of test substance. After incubation at 27° C. for 24 or 48 hours the turbidity in each well was measured by a microtitre plate reader. The growth inhibition was calculated in comparison to a control (without test substance). The IC50 value given in the following Table is the concentration of test substance at which the growth is inhibited by 50%.

Candida albicans = assay: Antifungal activity in vitro, microdilution method; type: cell-based; conditions: growth inhibition
Description: as §1

Aspergillus fumigatus = assay: Antifungal activity in vitro, microdilution method; type: cell-based; conditions: growth inhibition, incubation at 27° C. for 48 hours, read-out: IC50 (mg/ml) for: A. fumigatus after: 48 hours
Description: as §1

[2] = incubation at 27° C. for 24 hrs., read-out: IC50 (mg/ml) for: C. albicans after: 24 hrs.
[3] = incubation at 27° C. for 48 hrs., read-out: IC50 (mg/ml) for: C. albicans after: 48 hrs.

SMILES	IC50 [1]	inhibition at 0.1 µM [1]	also measured
C=CCN(C)C/C=C/COc1ccc(C(O)(C=C)c2ccc(Br)cc2)cc1 (racemic) [Example 8b, (E)-(RS)-1-[4-[4-(allyl-methyl-amino)-but-2-enyloxy]-phenyl]-1-(4-bromo-phenyl)-prop-2-en-1-ol]	23.7 nM	78%	
CN(C[C@@H]1C[C@H]1COc1ccc(C(=O)c2ccc(Br)cc2)cc1)C1CC1 (racemic) [Example 31, (1RS,2RS)-(4-bromo-phenyl)-[4-[2-[(cyclopropyl-methyl-amino)-methyl]-cyclopropylmethoxy]-phenyl]-methanone]	22 nM	85%	
CN(C[C@@H]1C[C@H]1COc1ccc(C(=O)c2ccc(Br)cc2)cc1F)C1CC1 (racemic) [Example 32a, (1RS,2RS)-(4-bromo-phenyl)-[4-[2-[(cyclopropyl-methyl-amino)-methyl]-cyclopropylmethoxy]-3-fluoro-phenyl]-methanone]	3.6 nM	85%	
C=CCN(C)CCCCCCOc1ccc(C(C)(O)c2ccc(Br)cc2)c(F)c1 (racemic) [Example 38, (RS)-1-[4-[6-(allyl-methyl-amino)-hexyloxy]-2-fluoro-phenyl]-1-(4-bromo-phenyl)-ethanol]	21 nM	82%	
C=CCN(C)C/C=C/COc1ccc(C(C)(O)CCC=C(C)C)cc1 (racemic) [Example 39a, (E)-(RS)-2-[4-[4-(allyl-methyl-amino)-but-2-enyloxy]-phenyl]-6-methyl-hept-5-en-2-ol]	12.3 nM	87%	
C=CCN(C)Cc1ccc(-c2ccc(C(F)c3ccc(Br)cc3)cc2)cc1 (racemic) [Example 48, (RS)-allyl-[4′-[(4-bromo-phenyl)-fluoro-methyl]-biphenyl-4-ylmethyl]-methyl-amine]			IC50 (Cryptococcus neoformans): 0.00047 mg/mL (≈ 1.11 µM); IC50 (Candida albicans; [2]): < 0.00032 mg/mL; IC50 (Candida albicans; [3]): < 0.00032 mg/mL; IC50 (Aspergillus fumigatus): 0.018 mg/mL (≈ 42.4 µM)
C=CCN(C)C/C=C/COc1cc(F)c(C(=O)c2ccc(Br)cc2)cc1F [Example 1, (E)-[4-[4-(allyl-methyl-amino)-but-2-enyloxy]-2,5-difluoro-phenyl]-(4-bromo-phenyl)-methanone]	2.4 nM	90%	
O=C(c1ccc(Br)cc1)c1ccc(OC/C=C/CN2CCC(O)CC2)cc1 [Example 2l, (E)-(4-bromo-phenyl)-[4-[4-(4-hydroxy-piperidin-1-yl)-but-2-enyloxy]-phenyl]-methanone]		81%	
CN(CCCCCCOc1ccc(C(=O)c2ccc(Br)cc2)c(F)c1)C1CC1 [Example 2p, (4-bromo-phenyl)-[4-[6-(cyclopropyl-methyl-amino)-hexyloxy]-2-fluoro-phenyl]-methanone]		66%	
C=CCN(C)CCCCCCOc1ccc(C(=O)c2ccc(Br)cc2)c(SC)c1 [Example 3, [4-[6-(allyl-methyl-amino)-hexyloxy]-2-methylsulphanyl-phenyl]-(4-bromo-phenyl)-methanone]	4.9 nM	92%	
C=CCN(C)C/C=C/COc1ccc(C(=C)c2ccc(Br)cc2)cc1 [Example 8f, (E)-allyl-[4-[4-[1-(4-bromo-phenyl)-vinyl]-phenoxy]-but-2-enyl]-methyl-amine]	13.5 nM	90%	
CN(CCCCCCOc1ccccc1C(=O)c1ccc(Br)cc1)C1CC1 [Example 13a, [6-[6-(cyclopropyl-methyl-amino)-hexyloxy]-phenyl]-(4-bromo-phenyl)-methanone]		82%	
CN(C/C=C/COc1ccc(C(=O)c2ccc(C#N)cc2)cc1F)C1CC1 [Example 13b, (E)-4-[4-[4-(cyclopropyl-methyl-amino)-but-2-enyloxy]-3-fluoro-benzoyl]-benzonitrile]	7.9 nM	93.5%	
CN(CCCCCCOc1ccc(C(=O)c2ccc(Br)cc2)cc1)CC1CC1 [Example 15, (4-bromo-phenyl)-[4-[6-(cyclopropylmethyl-methyl-amino)-hexyloxy]-phenyl]-methanone]	32 nM	83%	
C=CCN(C)C/C=C/COc1ccc(C(=O)/C=C/C=C(C)C)cc1F [Example 25, (E)-1-[4-[(E)-4-(allyl-methyl-amino)-but-2-enyloxy]-3-fluoro-phenyl]-5-methyl-hexa-2,4-dien-1-one]			IC50 (Cryptococcus neoformans): 0.001 mg/mL (≈ 2.91 µM); IC50 (Candida albicans; [2]): 0.00032 mg/mL (≈ 0.932 µM); IC50 (Candida albicans; [3]): < 0.00032 mg/mL; IC50 (Aspergillus fumigatus): 0.00082 mg/mL (≈ 2.39 µM)
C=CCN(C)C/C=C/COc1ccc(C(=O)/C=C/C=C(C)C)cc1 [Example 26c, (E)-1-[4-[(E)-4-(allyl-methyl-amino)-but-2-enyloxy]-phenyl]-5-methyl-hexa-2,4-dien-1-one]			IC50 (Cryptococcus neoformans): 0.0027 mg/mL (≈ 8.3 µM); IC50 (Candida albicans; [2]): 0.00049 mg/mL (≈ 1.51 µM); IC50 (Candida albicans; [3]): 0.0057 mg/mL (≈ 17.5 µM); IC50 (Aspergillus fumigatus): 0.0084 mg/mL (≈ 25.8 µM)
C=CCN(C)CCCCCCNc1ccc(C(=O)c2ccc(Br)cc2)cc1F [Example 30, [4-[6-(allyl-methyl-amino)-hexylamino]-3-fluoro-phenyl]-(4-bromo-phenyl)-methanone]	3.2 nM	93%	
C=CCN(C)CCCCCCOc1ccc(C(=O)c2ccc(Br)cc2)c(NC)c1 [Example 33, [4-[6-(allyl-methyl-amino)-hexyloxy]-2-methylamino-phenyl]-(4-bromo-phenyl)-methanone]	2.3 nM	98%	
C=CCN(C)CCCCCCOc1ccc(C(=O)c2ccc(Br)cc2)c(N(C)C)c1 [Example 34a, [4-[6-(allyl-methyl-amino)-hexyloxy]-2-dimethylamino-phenyl]-(4-bromo-phenyl)-methanone]	7.1 nM	98%	
C=CCN(C)CCCCCCOc1ccc(C(=O)c2ccc(Br)cc2)c(O)c1 [Example 35, [4-[6-(allyl-methyl-amino)-hexyloxy]-2-hydroxy-phenyl]-(4-bromo-phenyl)-methanone]		97%	
C=CCN(C)CCCCCCOC1CCN(S(=O)(=O)c2ccc(Br)cc2)CC1 [Example 49, allyl-[6-[1-(4-bromo-phenylsulphonyl)-piperidin-4-yloxy]-hexyl]-methyl-amine]	5.5 nM	94%	
C=CCN(C)C/C=C/COc1ccc(C(=NOC)c2ccc(Br)cc2)cc1 [Example 51, (E)-and/or (Z)-[4-[(E)-4-(ally-methyl-amino)-but-2-enyloxy]-phenyl]-(4-bromo-phenyl)-methanone-0-methyl-oxime]	12.8 nM	87.5%	

— patent US6441177B1 (Hoffmann-La Roche Inc., priority 1995, dated 2002)
